From patent US20080262082A1, “COMPOSITION CONTAINING S-(-)-TULIPALIN B OR ACETYLATED-S-(-)-TULIPALIN B” (BIO SPECTRUM, INC., priority 2007, published 2008)
Where two headings read alike, the source gives them in different places.

What was measured:
Assay type in all cases: cell-based
[1] = test system: Streptococcus mutans KCTC 3065; assay: Agar diffusion antibacterial test (aerobic); settings: S. mutans
[2] = test system: Staphylococcus aureus KCTC 1916; assay: Agar diffusion antibacterial test (aerobic); settings: S. aureus
[3] = test system: Pseudomonas aeruginosa KCTC 1637; assay: Agar diffusion antibacterial test (aerobic); settings: P. aeruginosa
[4] = test system: Listeria monocytogenes KCTC 3569; assay: Agar diffusion antibacterial test (aerobic); settings: L. monocytogenes
[5] = test system: Bacillus subtilis KCTC 1021; assay: Agar diffusion antibacterial test (aerobic); settings: B. subtilis
[6] = test system: Escherichia coli KCTC 1039; assay: Agar diffusion antibacterial test (aerobic); settings: E. coli
[7] = test system: Salmonella typhimurium KCTC 2514; assay: Agar diffusion antibacterial test (aerobic); settings: S. typhimurium
[8] = test system: Salmonella enteritidis KCTC 12400; assay: Agar diffusion antibacterial test (aerobic); settings: S. enteritidis
[9] = test system: Vibrio parahaemolyticus KCTC 27; assay: Agar diffusion antibacterial test (aerobic); settings: V. parahaemolyticus
[10] = test system: Bordetella bronchiseptica KCCM 21998; assay: Agar diffusion antibacterial test (aerobic); settings: B. bronchiseptica
[11] = test system: Legionella pneumophila KCCM 41779; settings: L. pneumophila
[12] = test system: Propionibacterium granulosum ATCC 25564; assay: Agar diffusion antibacterial test (anaerobic); settings: P. granulosum
[13] = test system: Clostridium dificile KCCM 12115; assay: Agar diffusion antibacterial test (anaerobic); settings: C. difficile
[14] = test system: Campylobacter jejuni KCTC 5327; assay: Agar diffusion antibacterial test (anaerobic); settings: C. jejuni
[15] = test system: Helicobacter pylori KCTC 5335; assay: Agar diffusion antibacterial test (anaerobic); settings: H. pylori
[16] = test system: Streptococcus mutans KCTC 3065; assay: MIC by broth dilution method; settings: S. mutans, 37° C., 24 hours
[17] = test system: Listeria monocytogenes KCTC 3569; assay: MIC by broth dilution method; settings: L. monocytogenes, 37° C., 24 hours
[18] = test system: Shigella flexneri KCTC 2517; assay: MIC by broth dilution method; settings: S. flexneri, 37° C., 24 hours
[19] = test system: Legionella pneumophila KCCM 41779; settings: L. pneumophila; broth dilution, 37° C., 24 hours
[20] = test system: Aeromonas salmonicida KCTC 12266; assay: MIC by broth dilution method; settings: A. salmonicida, 37° C., 24 hours
[21] = test system: Neisseria meningitidis KCCM 41562; assay: MIC by broth dilution method; settings: N. meningitidis, 37° C., 24 hours
[22] = test system: Actiinobacillus ureae KCTC 2674; assay: MIC by broth dilution method; settings: A. ureae, 37° C., 24 hours
[23] = test system: Propionibacterium granulosum ATCC 25564; assay: MIC by broth dilution method; settings: P. granulosum, 37° C., 24 hours
[24] = test system: Clostridium perfringens KCCM 12098; settings: C. perfringens; broth dilution, 37° C., 24 hours
[25] = test system: Corynebacterium glutamicum KCTC 1445; assay: MIC by broth dilution method; settings: C. glutamicum, 37° C., 24 hours
[26] = test system: Campylobacter jejuni KCTC 5327; assay: MIC by broth dilution method; settings: C. jejuni, 37° C., 24 hours
[27] = test system: Bacteroides fragilis KCTC 3688; assay: MIC by broth dilution method; settings: B. fragilis, 37° C., 24 hours
[28] = test system: 18 species of pathogenic bacteria (aerobic); assay: Agar diffusion antibacterial test, overall (aerobic); settings: all kinds of test bacteria (aerobic), agar diffusion
[29] = test system: 8 anaerobic bacterial species; assay: Agar diffusion antibacterial test, overall (anaerobic); settings: 8 anaerobic bacterial spp, agar diffusion

## C=C1C(=O)OC[C@H]1O [S-(−)-tulipalin B, (4S)-4-hydroxy-3-methylene-oxolan-2-one]
[1]; treatment concentration 0.1%
  Inhibitory zone diameter: 11 mm
[1]; treatment concentration 0.3%
  Inhibitory zone diameter: 13 mm
[1]; treatment concentration 1.0%
  Inhibitory zone diameter: 16 mm
[2]; treatment concentration 0.1%
  Inhibitory zone diameter: 12 mm
[2]; treatment concentration 0.3%
  Inhibitory zone diameter: 15 mm
[2]; treatment concentration 1.0%
  Inhibitory zone diameter: 18 mm
[3]; treatment concentration 0.3%
  Inhibitory zone diameter: 12 mm
[3]; treatment concentration 1.0%
  Inhibitory zone diameter: 14 mm
[4]; treatment concentration 0.1%
  Inhibitory zone diameter: 11 mm
[4]; treatment concentration 0.3%
  Inhibitory zone diameter: 13 mm
[4]; treatment concentration 1.0%
  Inhibitory zone diameter: 16 mm
[5]; treatment concentration 0.03%
  Inhibitory zone diameter: 11 mm
[5]; treatment concentration 0.1%
  Inhibitory zone diameter: 13 mm
[5]; treatment concentration 0.3%
  Inhibitory zone diameter: 15 mm
[5]; treatment concentration 1.0%
  Inhibitory zone diameter: 17 mm
[6]; treatment concentration 0.01%
  Inhibitory zone diameter: 10.5 mm
[6]; treatment concentration 0.03%
  Inhibitory zone diameter: 11.5 mm
[6]; treatment concentration 0.1%
  Inhibitory zone diameter: 13 mm
[6]; treatment concentration 0.3%
  Inhibitory zone diameter: 16 mm
[6]; treatment concentration 1.0%
  Inhibitory zone diameter: 20 mm
[7]; treatment concentration 0.03%
  Inhibitory zone diameter: 11 mm
[7]; treatment concentration 0.1%
  Inhibitory zone diameter: 13 mm
[7]; treatment concentration 0.3%
  Inhibitory zone diameter: 17 mm
[7]; treatment concentration 1.0%
  Inhibitory zone diameter: 20 mm
[8]; treatment concentration 0.03%
  Inhibitory zone diameter: 11 mm
[8]; treatment concentration 0.1%
  Inhibitory zone diameter: 13 mm
[8]; treatment concentration 0.3%
  Inhibitory zone diameter: 16.5 mm
[8]; treatment concentration 1.0%
  Inhibitory zone diameter: 20 mm
[9]; treatment concentration 0.01%
  Inhibitory zone diameter: 11 mm
[9]; treatment concentration 0.03%
  Inhibitory zone diameter: 13 mm
[9]; treatment concentration 0.1%
  Inhibitory zone diameter: 14 mm
[9]; treatment concentration 0.3%
  Inhibitory zone diameter: 18 mm
[9]; treatment concentration 1.0%
  Inhibitory zone diameter: 19 mm
[10]; treatment concentration 0.03%
  Inhibitory zone diameter: 12 mm
[10]; treatment concentration 0.1%
  Inhibitory zone diameter: 14 mm
[10]; treatment concentration 0.3%
  Inhibitory zone diameter: 18 mm
[10]; treatment concentration 1.0%
  Inhibitory zone diameter: 20 mm
[11]; treatment concentration 0.03%
  Inhibitory zone diameter: 11 mm
[11]; treatment concentration 0.1%
  Inhibitory zone diameter: 12 mm
[11]; treatment concentration 0.3%
  Inhibitory zone diameter: 16 mm
[11]; treatment concentration 1.0%
  Inhibitory zone diameter: 18 mm
[12]; treatment concentration 0.03%
  Inhibitory zone diameter: 10.5 mm
[12]; treatment concentration 0.1%
  Inhibitory zone diameter: 13 mm
[12]; treatment concentration 0.3%
  Inhibitory zone diameter: 15 mm
[12]; treatment concentration 1.0%
  Inhibitory zone diameter: 16 mm
[13]; treatment concentration 0.1%
  Inhibitory zone diameter: 10.5 mm
[13]; treatment concentration 0.3%
  Inhibitory zone diameter: 13 mm
[13]; treatment concentration 1.0%
  Inhibitory zone diameter: 13 mm
[14]; treatment concentration 0.01%
  Inhibitory zone diameter: 11.5 mm
[14]; treatment concentration 0.03%
  Inhibitory zone diameter: 13 mm
[14]; treatment concentration 0.1%
  Inhibitory zone diameter: 15 mm
[14]; treatment concentration 0.3%
  Inhibitory zone diameter: 16 mm
[14]; treatment concentration 1.0%
  Inhibitory zone diameter: 18 mm
[15]; treatment concentration 0.01%
  Inhibitory zone diameter: 10.5 mm
[15]; treatment concentration 0.03%
  Inhibitory zone diameter: 12 mm
[15]; treatment concentration 0.1%
  Inhibitory zone diameter: 14 mm
[15]; treatment concentration 0.3%
  Inhibitory zone diameter: 16 mm
[15]; treatment concentration 1.0%
  Inhibitory zone diameter: 18 mm
[16]
  MIC: 0.10%
[17]
  MIC: 0.10%
[18]
  MIC: 0.025%
[19]
  MIC: 0.03%
[20]
  MIC: 0.01%
[21]
  MIC: 0.01%
[22]
  MIC: 0.03%
[23]
  MIC: 0.03%
[24]
  MIC: 0.08%
[25]
  MIC: 0.10%
[26]
  MIC: 0.008%
[27]
  MIC: 0.01%
[28]
  Antibacterial effects: high antibacterial effects
[29]
  Antibacterial effects: relatively high antibacterial effects
